Data reported in ChEMBL document CHEMBL1136193, “Identification of a new chemical class of potent angiogenesis inhibitors based on conformational considerations and database searching” (Bioorg Med Chem Lett, 2003).
pIC50: −log10 of the molar value.

Experiments:
[1] = target: Vascular endothelial growth factor receptor 1 (Homo sapiens, UniProt P17948); assay: Inhibition of vascular endothelial growth factor receptor 1
[2] = target: Vascular endothelial growth factor receptor 2 (Homo sapiens, UniProt P35968); assay: Inhibition of Vascular endothelial growth factor receptor 2
[3] = target: Cyclin-dependent kinase 1 (Homo sapiens, UniProt P06493); assay: Inhibition of Cyclin-dependent kinase 1
[4] = target: Insulin-like growth factor 1 receptor (Homo sapiens, UniProt P08069); assay: Inhibition of Insulin-like growth factor I receptor
[5] = target: Hepatocyte growth factor receptor (Homo sapiens, UniProt P08581); assay: Inhibition of Met proto-oncogene tyrosine kinase
[6] = target: Mast/stem cell growth factor receptor Kit (Homo sapiens, UniProt P10721); assay: Inhibition of Proto-oncogene tyrosine-protein kinase Kit
[7] = target: cAMP-dependent protein kinase (PKA) (Homo sapiens, UniProt P22694+P17612+P22612); assay: Inhibition of Protein kinase A; type: protein assay

Vascular endothelial growth factor receptor 2, sequence (P35968 whole entry): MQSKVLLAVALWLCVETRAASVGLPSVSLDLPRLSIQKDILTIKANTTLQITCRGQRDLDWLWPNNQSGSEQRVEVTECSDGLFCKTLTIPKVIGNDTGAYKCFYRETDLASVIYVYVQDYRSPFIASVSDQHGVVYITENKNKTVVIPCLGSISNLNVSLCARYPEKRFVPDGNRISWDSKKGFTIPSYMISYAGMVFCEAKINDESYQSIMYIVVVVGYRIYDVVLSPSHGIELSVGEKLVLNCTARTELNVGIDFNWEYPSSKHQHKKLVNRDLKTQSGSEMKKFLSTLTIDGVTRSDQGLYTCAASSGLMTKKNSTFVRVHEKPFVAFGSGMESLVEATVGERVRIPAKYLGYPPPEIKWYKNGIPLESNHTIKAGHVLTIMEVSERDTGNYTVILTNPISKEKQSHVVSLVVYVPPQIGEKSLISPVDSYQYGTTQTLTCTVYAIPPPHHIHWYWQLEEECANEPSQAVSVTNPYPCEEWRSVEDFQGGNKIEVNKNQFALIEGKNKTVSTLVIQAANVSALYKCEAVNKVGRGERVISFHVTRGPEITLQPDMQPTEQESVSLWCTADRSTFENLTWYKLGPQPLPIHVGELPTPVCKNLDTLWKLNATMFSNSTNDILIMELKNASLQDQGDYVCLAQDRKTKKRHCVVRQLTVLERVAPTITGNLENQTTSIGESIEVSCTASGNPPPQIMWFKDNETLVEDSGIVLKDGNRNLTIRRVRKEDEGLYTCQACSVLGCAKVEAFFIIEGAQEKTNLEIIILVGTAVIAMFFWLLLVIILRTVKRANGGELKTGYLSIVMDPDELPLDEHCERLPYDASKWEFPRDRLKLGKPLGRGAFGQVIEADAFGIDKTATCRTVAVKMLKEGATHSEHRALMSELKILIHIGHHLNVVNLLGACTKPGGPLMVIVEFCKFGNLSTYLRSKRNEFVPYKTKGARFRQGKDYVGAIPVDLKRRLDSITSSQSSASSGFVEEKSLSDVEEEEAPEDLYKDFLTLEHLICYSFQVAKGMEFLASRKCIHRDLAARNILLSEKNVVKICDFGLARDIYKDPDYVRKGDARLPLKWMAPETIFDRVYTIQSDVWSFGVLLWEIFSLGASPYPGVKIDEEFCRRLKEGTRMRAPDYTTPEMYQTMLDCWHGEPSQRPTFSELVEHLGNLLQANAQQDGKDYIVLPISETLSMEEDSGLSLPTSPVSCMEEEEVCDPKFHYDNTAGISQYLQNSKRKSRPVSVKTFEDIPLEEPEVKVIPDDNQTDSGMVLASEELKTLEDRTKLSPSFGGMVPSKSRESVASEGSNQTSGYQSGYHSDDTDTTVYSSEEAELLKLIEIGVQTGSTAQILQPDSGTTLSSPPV
Cyclin-dependent kinase 1, sequence (P06493 whole entry): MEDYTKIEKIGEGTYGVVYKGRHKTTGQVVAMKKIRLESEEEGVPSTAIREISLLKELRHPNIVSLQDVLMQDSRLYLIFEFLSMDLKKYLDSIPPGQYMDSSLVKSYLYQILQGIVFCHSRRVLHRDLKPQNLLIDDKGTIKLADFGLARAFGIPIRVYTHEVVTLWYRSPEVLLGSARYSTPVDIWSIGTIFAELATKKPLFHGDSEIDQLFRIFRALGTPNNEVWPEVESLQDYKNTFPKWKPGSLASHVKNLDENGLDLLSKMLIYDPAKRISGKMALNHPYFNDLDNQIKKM
Vascular endothelial growth factor receptor 1, sequence (P17948 whole entry): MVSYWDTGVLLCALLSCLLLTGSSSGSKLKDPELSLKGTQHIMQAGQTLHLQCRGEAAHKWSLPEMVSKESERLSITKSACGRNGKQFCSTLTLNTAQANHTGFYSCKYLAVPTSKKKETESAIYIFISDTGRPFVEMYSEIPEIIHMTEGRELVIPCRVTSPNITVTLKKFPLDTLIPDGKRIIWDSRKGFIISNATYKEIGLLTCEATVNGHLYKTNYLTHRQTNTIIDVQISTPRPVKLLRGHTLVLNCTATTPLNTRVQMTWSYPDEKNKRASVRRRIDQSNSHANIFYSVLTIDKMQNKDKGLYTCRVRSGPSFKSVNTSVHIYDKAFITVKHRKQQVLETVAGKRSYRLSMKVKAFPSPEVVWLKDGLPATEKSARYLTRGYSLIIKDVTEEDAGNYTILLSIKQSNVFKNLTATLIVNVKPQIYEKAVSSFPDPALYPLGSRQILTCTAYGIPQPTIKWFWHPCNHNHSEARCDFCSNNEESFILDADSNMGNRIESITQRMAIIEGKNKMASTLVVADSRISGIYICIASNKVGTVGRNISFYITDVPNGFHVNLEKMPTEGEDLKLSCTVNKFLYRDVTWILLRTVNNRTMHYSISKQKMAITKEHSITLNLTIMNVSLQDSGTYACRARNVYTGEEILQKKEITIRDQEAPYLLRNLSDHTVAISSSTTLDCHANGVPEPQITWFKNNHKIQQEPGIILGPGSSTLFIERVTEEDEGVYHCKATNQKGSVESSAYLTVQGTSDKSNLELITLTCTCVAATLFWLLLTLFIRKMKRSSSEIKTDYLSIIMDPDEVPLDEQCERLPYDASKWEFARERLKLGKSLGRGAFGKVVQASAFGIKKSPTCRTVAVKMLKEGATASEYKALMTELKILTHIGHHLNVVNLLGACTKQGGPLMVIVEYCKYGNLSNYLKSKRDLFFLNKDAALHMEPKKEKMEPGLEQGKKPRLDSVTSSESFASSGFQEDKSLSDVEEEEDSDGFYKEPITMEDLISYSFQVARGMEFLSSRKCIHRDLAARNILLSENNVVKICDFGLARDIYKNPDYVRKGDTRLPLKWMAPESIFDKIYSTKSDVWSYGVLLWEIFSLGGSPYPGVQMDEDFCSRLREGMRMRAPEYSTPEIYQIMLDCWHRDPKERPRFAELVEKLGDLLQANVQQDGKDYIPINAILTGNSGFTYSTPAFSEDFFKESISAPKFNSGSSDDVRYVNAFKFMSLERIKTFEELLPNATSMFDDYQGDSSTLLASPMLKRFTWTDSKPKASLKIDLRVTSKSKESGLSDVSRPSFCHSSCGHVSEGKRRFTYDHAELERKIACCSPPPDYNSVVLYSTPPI
Hepatocyte growth factor receptor, sequence (P08581 whole entry): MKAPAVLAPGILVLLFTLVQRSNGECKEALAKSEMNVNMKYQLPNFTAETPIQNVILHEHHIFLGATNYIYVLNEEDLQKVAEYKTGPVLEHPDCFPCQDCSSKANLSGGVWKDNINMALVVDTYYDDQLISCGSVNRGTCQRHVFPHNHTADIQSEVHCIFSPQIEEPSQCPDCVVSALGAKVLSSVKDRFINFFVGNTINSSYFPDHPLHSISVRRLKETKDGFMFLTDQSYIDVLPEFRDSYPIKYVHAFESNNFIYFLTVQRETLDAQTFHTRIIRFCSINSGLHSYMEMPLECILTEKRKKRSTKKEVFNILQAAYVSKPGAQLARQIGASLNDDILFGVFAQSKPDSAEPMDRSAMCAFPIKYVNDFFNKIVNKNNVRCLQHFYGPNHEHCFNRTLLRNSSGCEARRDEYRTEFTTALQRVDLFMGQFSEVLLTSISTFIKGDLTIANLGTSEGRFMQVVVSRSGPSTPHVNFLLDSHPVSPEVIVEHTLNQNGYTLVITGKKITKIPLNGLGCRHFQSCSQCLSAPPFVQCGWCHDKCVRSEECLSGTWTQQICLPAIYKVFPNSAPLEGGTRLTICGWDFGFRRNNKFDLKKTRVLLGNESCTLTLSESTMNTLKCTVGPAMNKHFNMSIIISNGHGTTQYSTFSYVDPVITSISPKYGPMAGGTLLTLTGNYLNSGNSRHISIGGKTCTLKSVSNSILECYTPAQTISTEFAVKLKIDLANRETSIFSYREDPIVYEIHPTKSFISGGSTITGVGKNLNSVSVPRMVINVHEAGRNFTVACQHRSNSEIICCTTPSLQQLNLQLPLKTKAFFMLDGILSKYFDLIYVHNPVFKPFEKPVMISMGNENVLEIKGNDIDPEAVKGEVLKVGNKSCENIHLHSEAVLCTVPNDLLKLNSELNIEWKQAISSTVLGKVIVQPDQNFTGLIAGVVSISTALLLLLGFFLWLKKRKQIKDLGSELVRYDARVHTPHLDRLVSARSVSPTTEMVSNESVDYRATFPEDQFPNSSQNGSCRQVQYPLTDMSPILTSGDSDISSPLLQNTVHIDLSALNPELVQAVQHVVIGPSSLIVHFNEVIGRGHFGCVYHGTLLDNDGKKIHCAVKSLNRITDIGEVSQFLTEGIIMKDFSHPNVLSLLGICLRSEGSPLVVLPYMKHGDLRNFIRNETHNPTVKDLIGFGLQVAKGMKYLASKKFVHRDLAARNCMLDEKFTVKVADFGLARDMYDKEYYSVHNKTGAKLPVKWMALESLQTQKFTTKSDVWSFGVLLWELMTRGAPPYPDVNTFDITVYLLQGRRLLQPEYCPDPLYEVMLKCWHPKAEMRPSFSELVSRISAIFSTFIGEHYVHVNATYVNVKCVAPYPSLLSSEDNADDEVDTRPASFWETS

## O=C(Nc1ccccc1F)c1ccccc1NCc1ccc(F)cc1
[1]
  pIC50: 4.64
[2]
  pIC50: 5.43

## O=C(Nc1ccc(Cl)cc1)c1ccccc1NCc1ccncc1
[3]
  pIC50: < 5.00
[4]
  pIC50: < 5.00
[5]
  pIC50: < 5.00
[6]
  pIC50: 6.62
[7]
  IC50: > 10 µM
[2]
  pIC50: 7.70
